This test addresses RagA-RagC heterodimer, RagC nucleotide site (Homo sapiens, UniProt Q9HB90). The test can be described thus: UV crosslinking of radiolabelled nucleotide, SDS-PAGE autoradiography. The test is classed as binding.

Sequence of RagA-RagC heterodimer, RagC nucleotide site (Q9HB90 2-399): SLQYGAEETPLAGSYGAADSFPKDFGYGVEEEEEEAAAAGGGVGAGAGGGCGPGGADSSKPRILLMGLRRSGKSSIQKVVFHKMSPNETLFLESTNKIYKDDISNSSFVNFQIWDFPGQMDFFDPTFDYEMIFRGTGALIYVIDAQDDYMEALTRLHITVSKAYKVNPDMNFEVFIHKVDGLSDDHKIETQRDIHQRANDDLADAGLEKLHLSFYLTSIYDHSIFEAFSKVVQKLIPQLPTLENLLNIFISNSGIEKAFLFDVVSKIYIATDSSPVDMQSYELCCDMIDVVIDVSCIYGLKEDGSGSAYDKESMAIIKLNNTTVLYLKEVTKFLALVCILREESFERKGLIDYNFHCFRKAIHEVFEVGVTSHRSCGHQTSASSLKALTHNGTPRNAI
Sequence of RagA-RagC heterodimer, RagC nucleotide site (Q7L523 whole entry partner): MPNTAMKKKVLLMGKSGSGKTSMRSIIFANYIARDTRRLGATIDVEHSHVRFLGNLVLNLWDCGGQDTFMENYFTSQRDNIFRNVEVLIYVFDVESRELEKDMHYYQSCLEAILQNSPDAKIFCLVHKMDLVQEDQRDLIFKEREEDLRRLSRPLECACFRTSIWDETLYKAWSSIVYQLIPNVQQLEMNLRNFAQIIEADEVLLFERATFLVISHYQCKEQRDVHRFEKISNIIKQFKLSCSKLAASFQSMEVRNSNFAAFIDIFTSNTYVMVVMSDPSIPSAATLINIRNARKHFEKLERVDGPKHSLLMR

Broadly, the Kd is the equilibrium constant for the complex coming apart. Consider `Nc1nc2c(ncn2[C@@H]2O[C@H](COP(=O)(O)OP(=O)(O)OP(=O)(O)O)[C@@H](O)[C@H]2O)c(=O)[nH]1` [GTP], for which binding was characterised by a dissociation constant (Kd) of 11 nM.

These data come from paper PMC5674802 (Molecular cell, 2017).
